According to patent US10537650B2, “Molecular probes for multimodality imaging and tracking of stem cells” (University of Massachusetts, priority 2012, dated 2020):

Legend:
Assay type in all cases: in vivo, mouse
[1] = SPECT/CT, whole body activity and optical imaging of ^111In-MTTI-157 labeled LS174T cells in SKH-1 mice
Protocol: ^111In-MTTI-157 labeled LS174T cells were administered to mice to follow their fate and that of the labels they carried. All animal experiments were approved by the Institutional Animal Care and Use Committee of the university. Male SKH-1 mice about 8 week-old (Charles River Laboratories, Inc., Wilmington, Mass.) were housed under standard conditions and fed white chow (AIN-93G Purified Diet, Harlan, Madison, Wis.). LS174T cells were prepared labeled with ^111In-MTTI-157 as above, and about 5×10^6 cells with 10-12 μCi was injected by tail vein per mouse.
(§1) The mice were followed by SPECT/CT imaging (NanoSPECT/CT, Bioscan, Inc., Washington, D.C.) with scans at 30 min, 1 h, 24 h, 72 h, 120 h and 168 h following injection. The SPECT image parameters were 1.0 mm/pixel, 256×256 frame size and 60 sec per projection with 24 projections. Acquisition time was approximately 30 min. During imaging, the animal was anesthetized with 1-2% isoflurane in 1.5 L/min oxygen. A CT scan was acquired prior to the SPECT scan and was performed at standard resolution, using a 45 kVp voltage and 500 milliseconds exposure time. The CT and SPECT reconstruction was performed using InVivoScope 1.43 software (Bioscan, Washington, D.C.).
Optical images (Pearl Imager, LiCor Biosciences, Lincoln, Nebr.) were acquired on day 0 and at intervals through day 28. To facilitate detection of signal at depth, such as in the lungs, some animals were killed, the chest and abdomen opened to expose internal organs, and then imaged. Untreated mice served as control. After imaging, the lungs, liver and spleen were removed, imaged and then imbedded in OCT in preparation for frozen section fluorescence microscopy. Slides were counter stained with the general membrane stain D275 (Invitrogen). Slides were viewed in an Olympus IX 70 Inverted Light Microscope (Olympus America, Inc., NY) using filters for FITC (for D275) and Cy5 (for MTTI-157).

[2] = SPECT/CT, whole body count and optical imaging of ^111In-MTTI-157 labeled TC1 mES cells in NU/NU mice; conditions: for distribution of radioactivity (SPECT/CT): NU/NU mice
Protocol: All animal experiments were approved by the Institutional Animal Care and Use Committee of the university. Male NU/NU mice from Charles River Laboratories International, Inc. (Wilmington, Mass.), about 8 week-old, were used here, and fed a white chow (AIN-93G Purified Diet, Harlan, Madison, Wis.) and water, and housed under standard conditions. TC1 wild type mES cells were labeled with ^111In-MTTI-157 at the dye concentration of 20 μM with about 50 μCi/ml per labeling mix according to the method described before. Then about 4-5 μCi of ^111In-MTTI-157 labeled cells in 0.1 ml PBS (5×10^6 per mouse) was injected into NU/NU mice by tail vein or delivered subcutaneously on the left shoulder. The mice were followed by SPECT/CT imaging (NanoSPECT/CT, Bioscan, Inc., Washington, D.C.) with scans at 1 h and 19 h for injection subcutaneously, and at 30 min and 18 h for injection by tail vein.
The whole body radioactivity was measured through day 9 after injection by placing the mouse in a dose calibrator (Capintec).
as §1, with “The” for “The mice were followed by SPECT/CT imaging (NanoSPECT/CT, Bioscan, Inc., Washington, D.C.) with scans at 30 min, 1 h, 24 h, 72 h, 120 h and 168 h following injection. The”, “liters/min” for “L/min”
Optical images (Pearl Imager, LiCor Biosciences, Lincoln, Nebr.) were acquired on day 0 and at intervals through day 28. After imaging, the lungs, liver, spleen and teratoma were removed, imaged and then imbedded in OCT in preparation for frozen section fluorescence microscopy. Slides were counter stained with the general membrane stain D275 (Invitrogen, Em: 484 nm, Ex: 501 nm). Slides were viewed in an Olympus IX 70 Inverted Light Microscope (Olympus America, Inc., NY) using filters for FITC (for D275) and Cy5 (for MTTI-157). […]

[3] = SPECT/CT, whole body count and optical imaging of ^111In-MTTI-157 labeled BL/6 mES cells in NU/NU mice
Protocol: BL/6 wild type mouse embryonic stem cells (mES) were labeled with ^111In-MTTI-157 at the concentration of 12 μM and about 250 μCi/ml according to the method described before. The labeled cells (5 in 0.1 ml PBS (5×10^6 per mouse) were injected into NU/NU mice by tail vein or subcutaneously on the left shoulder. SPECT/CT imaging was done at 30 min, 21 h and day 4 after injection subcutaneously, and at 1 h, 22 h and day 4 when injected by tail vein. Optical imaging was performed through day 11 for the subcutaneous delivery of cells. The whole body radioactivity was measured through day 7 by placing the animal in a dose calibrator.
The lungs, liver, and spleen were removed from the mouse injected by tail vein when sacrificed on day 19, and the teratoma was removed from mouse injected subcutaneously on the left shoulder when sacrificed on day 15. Excised organs and teratoma were imaged on the Li-Cor Biosciences Pearl Imager, and then set in OCT for frozen sections. The frozen sections were stained with the general membrane fluorescent stain D275 (Invitrogen, Em: 484 nm, Ex: 501 nm) and detected on an Olympus IX 70 Inverted Light Microscope (Olympus America, Inc., NY) using a FITC filter for D275 and a Cy5 filter for MTTI-157. D275 is a cell membrane stain and was used here to stain the field of view. The frozen sections were also stained with hematoxylin-eosin (H&E) for standard microscopy.

CCCCCCCCCCCCCCCCCCCCCCN1C(=CC=CC=CC2=[N+](CCCCCCCCCCCCCCCCCCCCCC)c3ccc(CNC(=O)CN4CCN(CC(=O)[O-])CCN(CC(=O)[O-])CCN(CC(=O)[O-])CC4)cc3C2(C)C)C(C)(C)c2ccccc21.[111In+3].[I-] [^111In-MTTI-157]
whole body ^111In retention (decay corrected) ([1]; SKH-1 mice, labeled LS174T cells by tail vein): retention out thru Day 14 | loss of whole body activity (half-life corrected) ([1]; from day 0 to day 10, dose calibrator, SKH-1 mice): about 23% | distribution of radioactivity (SPECT/CT) ([1]; labeled LS174T cells by tail vein, SKH-1 mice, earliest scan 30 min and 1 h, then within a day): restricted to the lungs and then seen to redistribute within a day to the liver and spleen | label stability in vivo ([1]; monitoring of cells out through 28 days in vivo): no evidence of label instability | distribution of radioactivity (SPECT/CT) ([2]; labeled TC1 mES cells injected by tail vein): accumulated in the lungs at 1 h after injection and then distributed to liver and spleen by 19 h | distribution of radioactivity (SPECT/CT) ([2]; labeled TC1 mES cells injected subcutaneously on the left shoulder): retained in the shoulder and did not distribution to other tissue through 18 h | whole body radioactivity corrected for decay ([2]; tail vein and subcutaneous injection of labeled TC1 mES cells, dose calibrator): retained in the body through day 9 | distribution of radioactivity (SPECT/CT) ([3]; labeled BL/6 mES cells by tail vein, NU/NU mice): accumulated in the lungs by 1 h following injection which then distributed to the liver and spleen by 22 h | distribution of radioactivity (SPECT/CT) ([3]; labeled BL/6 mES cells subcutaneously on left shoulder, through day 4): retained in the shoulder without distribution to other tissue | whole body radioactivity ([3]; labeled BL/6 mES cells, measured through day 7 in dose calibrator): unchanged from 2 h to 21 h after injection, but then decreases slightly at 91 h and remain at this level through 165 h
